From US20190060340A1, “NOVEL AMINOGLYCOSIDES AND USES THEREOF IN THE TREATMENT OF GENETIC DISORDERS” (Technion Research & Development Foundation Limited, priority 2007, published 2019)
Values joined by “and” are separate entries in the source; they are usually repeats but may differ in a detail not shown here. Identical values can stand only once.

How the values were obtained:
[1] = test system: R3X nonsense mutation (a premature UGA C stop codon) of the PCDH15 gene; experiment: In vitro suppression and translation, pDB650-R3X reporter plasmid in rabbit reticulocyte lysate coupled transcription/translation system; format: biochemical, human; conditions: for Conc. (concentration at which maximal suppression level was observed) / Supp. level (%), maximal in-vitro mutation suppression: R3X mutation; for Supp. level (%), maximal in-vitro mutation suppression: 35-kDa product out of total protein; for Supp. level (%), maximal in-vitro mutation suppression / Trans. level (%): at Conc. of maximal suppression; for Concentration (μM) at which maximal suppression was observed, R3X / suppression level (%), maximum in vitro, R3X: Table 20; for suppression level (%), maximum in vitro, R3X: at concentration of maximal suppression; for Trans. level (%): total protein relative to no compound
Procedure: Initially, Compounds 1-9 were tested for their ability to suppress this nonsense mutation in vitro, using a reporter construct carrying the R3X nonsense mutation (a premature UGA C stop codon) of the PCDH15 gene. Mutations in the PCDH15 gene which encodes protocardherin 15, cause type 1 Usher syndrome (USH1), which is characterized by profound prelingual hearing loss, vestibular areflexia, and prepubertal onset of retinitis pigmentosa (RP). Four different PCDH15 USH1-causing nonsense mutations, R3X, R245X, R643X, and R929X, have been reported in humans.
Suppression of nonsense mutations by Compounds 1-9 was tested in vitro using a reporter plasmid harboring the R3X mutation of the PCDH15 gene. To create this plasmid, the oligonucleotides 5′-[…]-3′ (SEQ ID NO: 1) and 5′-[…]-3′ (SEQ ID NO: 2) were annealed to each other and inserted into the BamHI and HindIII sites of plasmid pDB650 [6].
The resulting reporter plasmid pDB650-R3X contained a TGA C nonsense mutation between a 25-kDa polypeptide encoding open reading frame (ORF) and a 10-kDa polypeptide encoding ORF.
The plasmid was transcribed and translated in a rabbit reticulocyte lysate coupled transcription/translation system (Promega) in the presence of [^35S]-methionine, and the reaction products were separated by SDS-PAGE and quantified using Phosphorlmager analysis. The mutation suppression level was calculated as the relative proportion of the 35-kDa product out of total protein (the sum of 35-kDa and 25-kDa), and the translation level was calculated as the relative proportion of the total protein at each tested compound concentration out of the total protein without the presence of the tested compounds.
The tested concentrations of paromomycin were 0, 5, 10, 20, 30 and 40 μg/ml, tested concentrations of gentamicin were 0, 5, 10, 20, and 30 μg/ml, and the tested concentrations of Compounds 1-9 were in the range of 0-160 μg/ml.
Compound 37 was tested for its ability to suppress a nonsense mutation in-vitro, using a reporter construct carrying either R3X nonsense mutation (a premature UGA C stop codon) or R245X nonsense mutation (a premature UGA A stop codon) of the PCDH15 gene, using gentamicin, paromomycin and Compound 3 as standards and following the experimental procedures presented hereinabove.
For the rat-PGM-β-Gal in vitro readthrough system, the pDB series of reporter plasmids harbor the following elements under SP6 promoter control: an open reading frame (ORF) derived from the 5′ end of the rat PGM gene, which encodes a 25-kDa polypeptide; another small ORF, encoding the 10-kDa alpha complementation region of β-galactosidase, and terminated by tandem, in-frame stop codons (UAA UAG); located between the two ORFs is a DNA fragment derived from PCDH15 cDNA, including the tested stop mutation or the corresponding wild-type codon, and six upstream and downstream flanking codons (except for p.R3X constructs, in which there are only two upstream PCDH15-flanking codons). The fragments were created by annealing the following couples of complementary oligonucleotides:
The fragments were inserted into the BamHI and HindIII restriction sites of the pDB read-through construct. Reporter plasmids harboring each of the four nonsense mutations and the corresponding wt alleles were in vitro transcribed and translated using the TNT SP6 Coupled Reticulocyte lysate System (Promega) in the presence of [^35S]-methionine and increasing concentrations of aminoglycosides as described previously. […] The degree of suppression was calculated as the relative proportion of the 35-kDa product out of total reaction products (35-kDa and 25-kDa polypeptides). The results are averages of at least three independent experiments.

[2] = test system: G542X (CFTR, Cystic Fibrosis); experiment: Dual luciferase in vitro transcription/translation assay; format: biochemical, human
From the text: (§1) DNA fragments derived from the subsequent genes, including the tested stop mutation or the corresponding wild-type codon, and four upstream and downstream flanking codons (except for p.R3X constructs, in which there are only two upstream PCDH15-flanking codons) were cloned into p2Luc plasmid between renilla and firefly luciferase genes as described previously. The formed plasmids, as well as the original p2Luc plasmid containing a TGA C nonsense mutation, were transcribed and translated in vitro and the stop codon suppression efficiency was calculated as described previously.
(§2) For the dual luciferase in vitro transcription/translation assay, DNA fragments derived from PCDH15, CFTR, Dystrophin and IDUA cDNAs, including the tested stop mutation or the corresponding wild-type codon, and four upstream and downstream flanking codons (except for p.R3X constructs, in which there are only two upstream PCDH15-flanking codons) were created by annealing the couples of complementary oligonucleotides presented above.
(§3) Fragments were inserted into the SalI and SacI restriction sites of the p2Luc plasmid between renilla and firefly luciferase genes. The afforded plasmids, as well as the original p2Luc plasmid containing a TGA C nonsense mutation, were transcribed and translated using the TNT Reticulocyte Lysate Quick Coupled Transcription/Translation System (Promega™). Each transcription/translation reaction (10 μl, total volume) contained 8 μl TNT T7 Quick Master Mix, 0.2 μl methionine (1 mM), 0.8 μl DNA template (2 μg/μl), 1 μl of either water (blank) or 1 μl solution of increasing concentrations of the tested aminoglycosides in water. Luciferase activity was determined following 90 minutes incubation at 30° C. using the Dual Luciferase Reporter Assay System (Promega™). The total luminescence produced by each one of the proteins was measured separately using the FLx800 multidetection plate reader (Bio-Tek) and the stop codon suppression efficiency was calculated as described previously. The results are averages of at least three independent experiments.

[3] = test system: Q70X (IDUA, Hurler Syndrome); experiment: as above; format: biochemical, human
From the text: as §1, §2, §3

[4] = test system: R245X (PCDH15, Usher Syndrome); experiment: as above; format: biochemical, human
From the text: as §1, §2, §3

[5] = test system: R3381X (Dystrophin, Duchenne Muscular Dystrophy); experiment: as above; format: biochemical, human
From the text: as §1, §2, §3

[6] = test system: R3X (PCDH15, Usher Syndrome); experiment: as above; format: biochemical, human
From the text: as §1, §2, §3

[7] = test system: W1282X (CFTR, Cystic Fibrosis); experiment: as above; format: biochemical, human
From the text: as §1, §2, §3

[8] = test system: W402X (IDUA, Hurler Syndrome); experiment: as above; format: biochemical, human
From the text: as §1, §2, §3

[9] = test system: eukaryotic translation; experiment: Inhibition of eukaryotic translation; format: biochemical

| Compound | Conc. (concentration at which maximal suppression level was observed) ([1]; in vitro) [µg/mL] | Supp. level (%), maximal in-vitro mutation suppression [1] [%] | fold higher activity compared to Compound 1 ([1]; R3X, in vitro) | fold higher suppression level compared to Compound 2 ([1]; R3X, in vitro) [fold] | Concentration (μM) at which maximal suppression was observed, R3X [1] [µM] | suppression level (%), maximum in vitro, R3X [1] | Maximum in vitro suppression (%) G542X [2] [%] | Maximum in vitro suppression (%) Q70X [3] [%] | Maximum in vitro suppression (%) R245X [4] [%] | Maximum in vitro suppression (%) R3381X [5] [%] | Maximum in vitro suppression (%) R3X [6] [%] | Maximum in vitro suppression (%) W1282X [7] [%] | Maximum in vitro suppression (%) W402X [8] [%] | IC50 [9] [µM] | fold more efficient inhibition of eukaryotic translation than gentamicin and paromomycin [9] | Supp. level (%), maximal in-vitro mutation suppression ([1]; listed as Paromomycin) [%] | Trans. level (%) [1] | Trans. level (%) ([1]; listed as Paromomycin) | Trans. level (%) ([1]; listed as Gentamicin) |
| --- | --- | --- | --- | --- | --- | --- | --- | --- | --- | --- | --- | --- | --- | --- | --- | --- | --- | --- | --- |
| NC[C@H]1O[C@@H](O[C@@H]2[C@@H](O)[C@H](N)C[C@H](N)[C@H]2O[C@H]2O[C@H](CO)[C@@H](O)[C@H](O)[C@H]2N)[C@H](O)[C@@H]1O [Compound 3] | 80 | 21 ± 3 | over 3 fold | 13 | 142 | 21% and 21 ± 9% | 0.63 ± 0.29 | 2.0 ± 0.4 | 0.98 ± 0.30 | 1.8 ± 0.2 | 2.9 ± 0.9 | 1.6 ± 0.4 | 3.2 ± 0.4 | 31 | about 2 fold | – | – | – | – |
| NCC[C@H](O)C(=O)N[C@@H]1CC(N)[C@@H](O[C@H]2OC(CO)[C@@H](O)C(O)C2N)C(O[C@@H]2O[C@H](CN)C(O)C2O)C1O (stereo partly shown) [Compound 37] | – | – | – | – | 153 | 71% and 71 ± 9% | 5.1 ± 0.6 | 10.6 ± 1.1 | 4.9 ± 0.5 | 7.8 ± 0.8 | 29.2 ± 3.1 | 3.3 ± 0.4 | 21.9 ± 4.4 | 24 | about 3 fold | – | – | – | – |
| NC[C@@H]1O[C@H](O[C@H]2[C@@H](O)[C@H](O[C@@H]3[C@@H](O)[C@H](N)C[C@H](N)[C@H]3O[C@H]3O[C@H](CO)[C@@H](O)[C@H](O)[C@H]3N)O[C@@H]2CO)[C@H](N)[C@@H](O)[C@@H]1O [paromomycin, reference compound] | 40 | 49 | – | – | 56 | 49 ± 6% | 0.74 ± 0.08 | 2.2 ± 0.5 | 0.71 ± 0.32 | 2.4 ± 0.3 | 9.4 ± 0.5 | 1.2 ± 0.2 | 3.3 ± 0.1 | 58 | – | 49 ± 6 | about 40% | 40 ± 13 | – |
| gentamicin [reference compound] | 30 | 49 ± 4 | – | – | 46 | 50 ± 3% | 2.8 ± 0.7 | 1.5 ± 0.4 | 0.90 ± 0.28 | 3.5 ± 0.7 | 14.0 ± 1.0 | 1.4 ± 0.5 | 7.2 ± 0.5 | 60 | – | – | about 40% | – | 40 ± 9 |
